Results taken from patent US9068231B2, “Method for screening cancer therapeutic agent using galectin-3, GSK-3β, and fascin-1” (National Cancer Center, priority 2010, dated 2015).

Legend:
Type in all cases: cell-based, human
[1] = test system: galectin-3; assay: RT-PCR and Western blotting of galectin-3 after siRNA transfection; conditions: MKN-28 cells, siRNA 5 and 10 nmol/L, 48 hrs after transfection
Method: (A) mRNA and protein levels of galectin-3 and fascin-1 in human gastric cancer MKN-28 cells after transfection with scrambled siRNA (scRNA) or galectin-3 siRNA at two different concentrations (5 and 10 nmol/L). Total RNA and protein obtained from the cells harvested 48 hrs after the transfection were analyzed by RT-PCR and Western blotting. β-actin was used as a loading control. (B) Immunocytochemical analysis of scRNA or galectin-3 siRNA-transfected MKN-28 cells by DAPI (blue), anti-fascin-1 FITC (green) and anti-F-actin Texas Red (red) was detected with a confocal microscope. Bars represent a length of 10 μm. (C and D) A histogram depicting the migration of galectin-3 silenced cells. The results of the migration assay are presented with a statistical significance (P<0.0005) (C), and in cell photographs (D). (E) Expression levels of galectin-3 and fascin-1 in SNU-638 cells were determined by Western blotting after transfection with pcDNA3.1/NT-GFP-Galectin-3 and vector control of pcDNA3.1/NT-GFP. β-actin was used as a loading control; […]
(§1) For use in Western blotting and immunoprecipitation, cell lysates were prepared in RIPA buffer containing a protease inhibitor cocktail. […] Proteins were detected by Western Blotting with anti-galectin-3, anti-β-catenin, anti-GSK-3β and anti-TCF-4. […]

[2] = test system: fascin-1; assay: RT-PCR and Western blotting of fascin-1 after siRNA transfection in MKN-28 cells
Method: (A) mRNA and protein levels of galectin-3 and fascin-1 in human gastric cancer MKN-28 cells after transfection with scrambled siRNA (scRNA) or galectin-3 siRNA at two different concentrations (5 and 10 nmol/L). Total RNA and protein obtained from the cells harvested 48 hrs after the transfection were analyzed by RT-PCR and Western blotting. β-actin was used as a loading control. (B) Immunocytochemical analysis of scRNA or galectin-3 siRNA-transfected MKN-28 cells by DAPI (blue), anti-fascin-1 FITC (green) and anti-F-actin Texas Red (red) was detected with a confocal microscope. Bars represent a length of 10 μm. (C and D) A histogram depicting the migration of galectin-3 silenced cells. […] (E) Expression levels of galectin-3 and fascin-1 in SNU-638 cells were determined by Western blotting after transfection with pcDNA3.1/NT-GFP-Galectin-3 and vector control of pcDNA3.1/NT-GFP. β-actin was used as a loading control;
(A) Fascin-1 protein expression in MKN-28 cells transfected with scrambled siRNA (scRNA) or fascin-1 siRNA. β-actin was used as a loading control. […] Cell migration was measured by microscopy; […]
as §1

[3] = test system: MKN-28 cells; assay: Immunocytochemistry (fascin-1, F-actin, cell morphology); conditions: confocal microscopy
Method: (A) mRNA and protein levels of galectin-3 and fascin-1 in human gastric cancer MKN-28 cells after transfection with scrambled siRNA (scRNA) or galectin-3 siRNA at two different concentrations (5 and 10 nmol/L). Total RNA and protein obtained from the cells harvested 48 hrs after the transfection were analyzed by RT-PCR and Western blotting. β-actin was used as a loading control. (B) Immunocytochemical analysis of scRNA or galectin-3 siRNA-transfected MKN-28 cells by DAPI (blue), anti-fascin-1 FITC (green) and anti-F-actin Texas Red (red) was detected with a confocal microscope. Bars represent a length of 10 μm. (C and D) A histogram depicting the migration of galectin-3 silenced cells. The results of the migration assay are presented with a statistical significance (P<0.0005) (C), and in cell photographs (D). (E) Expression levels of galectin-3 and fascin-1 in SNU-638 cells were determined by Western blotting after transfection with pcDNA3.1/NT-GFP-Galectin-3 and vector control of pcDNA3.1/NT-GFP. β-actin was used as a loading control;
(A) Fascin-1 protein expression in MKN-28 cells transfected with scrambled siRNA (scRNA) or fascin-1 siRNA. β-actin was used as a loading control. (B) Immunocytochemical analysis of MKN-28 cells transfected with scRNA or fascin-1 siRNA by DAPI (blue), anti-fascin-1 FITC (green) and anti-F-actin Texas Red (red) was conducted using confocal microscopy. Bars represent 10 μm in length. (C) Cell migration in fascin-1-silenced MKN-28 cells. Results of the migration assay are presented as a histogram, with statistical significance (P<0.0004). ([…]) (D) Colony formation assay, (E) invasion assay, and (F) wound healing assay of MKN-28 cells were performed with transfected galectin-3 and fascin-1 siRNAs. Results of the colony formation assay and invasion assay are shown as a histogram, with statistical significance (P<0.0005). Cell migration was measured by microscopy;
(§2) Cells cultured in chamber slides were fixed and blocked with 5% bovine serum albumin (BSA) in PBS and then incubated with primary anti-galectin-3, anti-fascin-1, anti-GSK-3β, anti-β-catenin antibodies diluted (1:200) in PBS. The cells were conjugated with the secondary antibodies labeled with FITC, Cy5 (Zymed), or Texas Red-X phalloidin (Invitrogen). The samples were treated with a mounting medium, and analyzed with a confocal microscope (Carl-Zeiss).

[4] = test system: MKN-28 cells; assay: Transfilter migration assay; conditions: 20 hours, collagen type 1-coated filters
Method: (§3) Transfilter migration and invasion assays were performed with 8.0-μm pore inserts in a 24-well Transwell. For this assay, MKN-28 and SNU638 cells were transfected overnight with siRNAs. Then, they were isolated and added to the upper chamber of a Transwell with 0.5 mg/mL collagen type 1 (BD Bioscience)-coated filters in migration assay. The invasion assay was performed using 1/15 diluted Matrigel (BD Bioscience)-coated filters at 2×10^4 cells/well. RPMI 1640 supplemented with 10% fetal bovine serum and 1% antibiotics was added to the lower chamber and the cells were allowed to incubate for 20 hours. Migrating and invading cells were quantified after H&E staining. Each experiment was performed in triplicate and mean values are presented. A wound healing assay was performed according to the published protocol (Liang C C, Park A Y, Guan J L. In vitro scratch assay: a convenient and inexpensive method for analysis of cell migration in vitro. Nat Protoc 2007; 2:329-33).

[5] = test system: MKN-28 cells; assay: Invasion assay (Matrigel-coated filters); conditions: 20 hours
Method: as §3

[6] = test system: MKN-28 cells; assay: Colony formation (soft agar growth) assay; conditions: 3 weeks
Method: A layer of 0.5 mL RPMI 1640 containing 0.5% agar and 5% fetal bovine serum was placed in 24-well plates. After solidification of this bottom layer, cells transfected with galectin-3 and fascin-1 siRNAs (1.25×10^4 per well) were poured into a top layer of 0.25 mL RPMI 1640 containing 0.3% agar and 5% fetal bovine serum. Colonies were scored by microscopic examination after 3 weeks. All samples were prepared in triplicate.

[7] = test system: MKN-28 cells; assay: Wound healing assay
Method: as §3

[8] = test system: β-catenin/TCF-4; assay: Immunoprecipitation and Western blot of GSK-3β, β-catenin and TCF-4 interaction; conditions: MKN-28 cells, immunoprecipitation
Method: (§4) Whole-cell lysate was used as a positive control. […] Whole-cell lysates were used as a positive control. (C) Chromatin immunoprecipitation assay was performed as described in the Materials and Methods of the Example section. Total genomic DNA on an input lane was used as a control for the PCR reaction. (D) Luciferase activity of TCF4 in lacZ and galectin-3 overexpressing cells. Luciferase assay was performed as described in the Example section. A construct of SP1 consensus was used as a negative control. […] Lamin A/C was used as a nuclear fraction control;
(§5) For use in Western blotting and immunoprecipitation, cell lysates were prepared in RIPA buffer containing a protease inhibitor cocktail. Immunoblotting was performed with anti-galectin-3, anti-fascin-1, anti-GSK-3β, anti-TCF-4 (Santa-Cruz), anti-GSK-3β[pS^[…]] (biosourse), anti-β-catenin and anti-lamin A/C (Cell-Signaling), and anti-β-actin (Sigma). Immunoprecipitation was performed with A/G agarose beads coated with anti-galectin-3 and anti-β-catenin. Proteins were detected by Western Blotting with anti-galectin-3, anti-β-catenin, anti-GSK-3β and anti-TCF-4. Mouse/rabbit IgG was used as a negative control.

[9] = test system: fascin-1 promoter; assay: Chromatin immunoprecipitation assay on fascin-1 promoter; conditions: ChIP assay, with or without galectin-3
Method: as §4
Chromatin immunoprecipitation assays were performed using a chIP assay kit (Upstate), according to the manufacturer's instructions. Anti-TCF4, anti-β-catenin, anti-galectin-3, and rabbit IgG were used to immunoprecipitate DNA-containing complexes. Primer was prepared with fascin-1 promoter binding sites: fascin-1 promoter (−1321), 5′-[…]-3′ (SEQ ID NO. 11) and (−1061) 5′-[…]-3′ (SEQ ID NO. 12), followed by performing PCR.

[10] = test system: phosphorylated GSK-3β, β-catenin; assay: Western blotting of nuclear and cytosol fractions; conditions: MKN-28 cells
Method: as §4, §5

[11] = test system: GSK-3β, β-catenin; assay: Immunocytochemistry of GSK-3β and β-catenin localization; conditions: galectin-3-silenced cells, confocal microscope
Method: DAPI was used to figure out the nucleus (blue). Bars represent a 10 μm length;
as §2

[12] = test system: fascin-1; assay: Western blot of fascin-1 in galectin-3-overexpressing SNU638 cells; conditions: SNU638 cells infected with galectin-3 lenti-virus
Method: (§6) (A) Expression levels of galectin-3 and fascin-1 were detected by Western blot analysis in SNU-638 cells which were infected with a lenti-virus containing LacZ or galectin-3 and then transfected with fascin-1 siRNA or scrambled RNA as a negative control. β-actin was used as a loading control. (B and C) These cells were analyzed by migration assay (B) and invasion assay (C), presented as histograms (P<0.0005);
as §5
The full-length human galectin-3 gene cloned in the expression vector pcDNA3.1-NT-GFP-gal3 was amplified by PCR using a primer set of 5′-[…]-3′ (SEQ ID NO. 13) and 5′-[…]-3′ (SEQ ID NO. 14). The PCR product thus obtained was cloned into pcDNA3.1-NT-GFP using the TA cloning method (Invitrogen). […]

[13] = test system: SNU638 cells; assay: Transfilter migration assay in galectin-3-overexpressing SNU638 cells; conditions: SNU638 cells infected with galectin-3 lenti-virus
Method: as §6, §3

[14] = test system: SNU638 cells; assay: Invasion assay in galectin-3-overexpressing SNU638 cells; conditions: SNU638 cells infected with galectin-3 lenti-virus
Method: as §6, §3

Row | Substance | expression levels of mRNAs and proteins of galectin-3 [1] | expression levels of mRNAs and proteins of fascin-1 ([2]; galectin-3 siRNA 5 and 10 nmol/L, 48 hrs after transfection) | F-actin localization [3] | cell morphology [3] | fascin-1 expression in the cytosol (immunocytochemistry) [3] | total number of migrated cells / cell migration [4] | cell invasion [5] | colony formation [6] | wound healing [7] | interaction between GSK-3β and β-catenin [8] | interaction between β-catenin and TCF-4 [8] | binding of β-catenin and TCF-4 to the promoter regions of fascin-1 [9] | level of phosphorylated GSK-3β [10] | level of β-catenin [10] | localization of GSK-3β [11] | localization of β-catenin [11] | fascin-1 protein expression ([2]; fascin-1 siRNA, Western blot) | level of fascin-1 protein [12] | cell migration increased by galectin-3 overexpression [13] | cell invasion by galectin-3 overexpression [14]
1 | 5′-AUAUGAAGCACUGGUGAGGUCUAUG-3′ (listed as RNA, chemistry not given here) [galectin-3 siRNA, siRNA silencing galectin-3, obtained from Invitrogen] | reduction in the expression levels | reduction in the expression levels | appeared only at cell-cell contact areas | became round in shape and did not have any protruding regions | diminished in the cytosol | reduced by almost half | significantly reduced | significantly reduced | significantly reduced | weakened | diminished | lost their binding activity | decreased in both the nucleus and the cytosol | decreased in both the nucleus and the cytosol | located only in cytosol | not detected either in the nucleus or cytosol | – | – | – | –
2 | 5′-UCCAGCAAGAAUGCCAGCUGCU ACU-3′ (listed as RNA, chemistry not given here) [fascin-1 siRNA, siRNA silencing fascin-1, obtained from Invitrogen; called a candidate therapeutic agent] | – | – | appeared only in cell-cell contact areas | changed to a round shape without spikes | – | decreased the migration | significantly reduced | significantly reduced | significantly reduced | – | – | – | – | – | – | – | reduced fascin-1 expression | diminished | significantly reduced | inhibitory effect
